{"source": "patent US9051351B2", "about": "“Hepatocyte growth factor mimics as therapeutic agents” (Washington State University, priority 2011, dated 2015)", "key": {"6-OHDA lesioned rats": {"test_system": "6-OHDA lesioned rats", "assay": "6-OHDA lesioned rat: rope hang, gait analysis, histology", "assay_type": "in vivo", "experimental": "Three groups of rats (8 animals per group) were utilized. The first two groups were prepared with unilateral 6-OHDA lesions and members of the first group was treated with MM-201 in DMSO 100 μl:PBS 8 ml ([…]) Members of Group 2 were treated with sterile DMSO 100 μl:PBS 8 ml equivalent volumes to the weights. Members of Group 3 had only a sham surgery and served as the non-treated controls. These three groups of animals were tested on behavioral tasks the day prior to surgery and on 13 days following surgery. The tasks included rope hang, and gait analysis.\nThe rope hang test involved the placement of the forepaws on a hemp rope (1.0 cm in dia.) located 1 m above a basket of towels. Hang time was recorded beginning when the experimenter let go of the animal. This test was repeated 3 times/animal/test (5 minutes rest between each test) every other day.\nStep gait analyses were conducted in a dark room painted black under red light. The bottoms of each rat's feet were painted with black ink (Parker Quink) and the rat was placed in a Plexiglas straight maze (length×width×height: 116×7.6×10 cm). The maze was slightly elevated at one end such that the animal's tendency was to walk up hill. White paper strips placed on the floor of the maze were used to collect the gait patterns. These ink tracks were analyzed for stride length (distance between the mid point of the fore paw and hind paw comparing left and right strides)."}, "hippocampal neurons": {"test_system": "hippocampal neurons", "assay": "Whole-cell recordings of mEPSCs in dissociated hippocampal neurons", "assay_type": "cell-based, rat", "conditions": "10^−12 M, 5 days"}, "aged rats": {"test_system": "aged rats", "assay": "Morris water maze, aged rat model", "assay_type": "in vivo", "conditions": "aged rats of mixed sex, Dihexa oral 2 mg/kg/day, 8 days", "experimental": "Swim speed was determined from these values.\nThe aged rat study employed 24 month old rats of mixed sex. […] The guide was then sealed with a thick stainless steel wire."}, "[1]": {"assay": "Blood stability in heparinized rat blood", "assay_type": "in vitro ADME", "conditions": "rat", "experimental": "At the end of each incubation, 20 μL of […]"}}, "note": "Entries after “also recorded” stand apart in the source; their conditions may differ. Where a SMILES comes first, the peptide text is derived from it. [ ]: non-standard residue; d: D form. The star is where a group is joined. Hexanoyl = CCCCCC(=O)*; Ahx = NCCCCCC(=O)O", "data": [{"smiles": "CCCCCC(=O)N[C@@H](Cc1ccc(O)cc1)C(=O)N[C@H](C(=O)NCCCCCC(N)=O)[C@@H](C)CC", "note": "[Dihexa, N-hexanoic-Tyr-Ile-(6)-aminohexanoic amide] (Hexanoyl-Tyr-Ile-[Ahx]-NH2)", "values": [{"measurement": "performance in the rope hang test", "setting": "6-OHDA lesioned rats; 0.5 mg/kg ip, started 2 weeks after 6-OHDA lesion", "result": "completely restores performance in the rope hang test; also recorded: completely restored the performance"}, {"measurement": "motor deficits in the 6-OHDA rat", "setting": "6-OHDA lesioned rats; 2 mg/kg by oral gavage/48 hrs", "result": "reverses motor deficits"}, {"measurement": "gait analysis", "setting": "6-OHDA lesioned rats; 6-OHDA lesioned rats", "result": "confirmed the recovery of normal motor function"}, {"measurement": "overt toxicity", "setting": "6-OHDA lesioned rats; 96 day studies", "result": "no overt toxicity was noted"}, {"measurement": "tyrosine hydroxylase (TH) staining in the substantia nigra", "setting": "6-OHDA lesioned rats; six weeks of ip Dihexa treatment", "result": "dramatic restoration of tyrosine hydroxylase (TH) staining"}, {"measurement": "recovery of SN TH staining", "setting": "6-OHDA lesioned rats; three months of Dihexa treatment", "result": "~100", "unit": "%"}, {"measurement": "frequency of AMPA-mediated mEPSCs", "setting": "hippocampal neurons", "result": "4.82±0.34", "unit": "Hz"}, {"measurement": "increase in mEPSC frequency over control", "setting": "hippocampal neurons", "result": 1.6, "unit": "fold"}, {"measurement": "latency to find the pedestal in the water maze", "setting": "aged rats", "result": "preformed significantly better in the water maze than untreated rats; also recorded: performed significantly better than untreated controls"}, {"measurement": "latency to find the pedestal in the water maze", "setting": "aged rats; listed as dihexa", "result": "significantly improved performance; also recorded: significantly different than that of the non-treated rats"}, {"measurement": "stable in the blood", "setting": "[1]", "result": "over 5 hours"}]}]}
